This is an account of results in US11912686B2 (Gilead Sciences, Inc., priority 2020, dated 2024).

Molecules are shown by their SMILES.

Broadly, the EC50 is the concentration needed to bring the measured effect to its halfway point.

The target of the assay is human LPAR1 (Homo sapiens (Human), UniProt Q92633). Nature of the assay: LPAR1 intracellular calcium mobilization assay (antagonist mode, FLIPR). In kind it is cell-based. The following applies: CHO-K1 EDG2 cells expressing human LPAR1, LPA 18:2 at EC80 (100 nM), test compound 0.5 nM to 10 μM. A general note: A change in cytosolic calcium serves as a functional read-out for many receptors and channels.
Sequence of human LPAR1 (Q92633 whole entry): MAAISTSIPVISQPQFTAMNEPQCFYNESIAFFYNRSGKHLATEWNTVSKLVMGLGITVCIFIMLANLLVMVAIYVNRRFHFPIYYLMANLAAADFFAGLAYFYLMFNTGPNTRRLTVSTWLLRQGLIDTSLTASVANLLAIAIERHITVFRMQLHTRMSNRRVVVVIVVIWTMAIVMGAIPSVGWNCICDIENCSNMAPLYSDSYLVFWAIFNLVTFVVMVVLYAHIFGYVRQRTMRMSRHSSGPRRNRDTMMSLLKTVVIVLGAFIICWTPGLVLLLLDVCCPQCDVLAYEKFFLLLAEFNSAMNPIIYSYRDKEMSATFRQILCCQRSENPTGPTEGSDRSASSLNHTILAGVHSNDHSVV
With `Cc1cc(C2(C(=O)Nc3ccc(-c4nnn(C)c4NC(=O)O[C@H](C)c4cccnc4Cl)nc3)CC2)on1` [Compound 160, (R)-1-(2-chloropyridin-3-yl)ethyl (1-methyl-4-(5-(1-(3-methylisoxazol-5-yl)cyclopropane-1-carboxamido)pyridin-2-yl)-1H-1,2,3-triazol-5-yl)carbamate], the EC50 is 1450 nM.
As to `C[C@@H](OC(=O)Nc1c(-c2ccc(NC(=O)[C@H]3C[C@@]4(CC4(F)F)C3)cn2)nnn1C)c1cccnc1Cl` [Compound 85, (R)-1-(2-chloropyridin-3-yl)ethyl (4-(5-((3R,5r)-1,1-difluorospiro[2.3]hexane-5-carboxamido)pyridin-2-yl)-1-methyl-1H-1,2,3-triazol-5-yl)carbamate], the EC50 was 11.2 nM.
As for `C[C@@H](OC(=O)Nc1c(-c2ccc(NC(=O)[C@@H]3C[C@H]3c3ccccc3)cn2)nnn1C)c1cccnc1Cl` [Compound 197, (R)-1-(2-chloropyridin-3-yl)ethyl (1-methyl-4-(5-((1R,2R)-2-phenylcyclopropane-1-carboxamido)pyridin-2-yl)-1H-1,2,3-triazol-5-yl)carbamate], the EC50 was found to be 5.2 nM.
Then `C[C@@H](OC(=O)Nc1c(-c2ccc(NC(=O)C3(C(F)F)CC(F)(F)C3)cn2)nnn1C)c1cccnc1Cl` [Compound 119, (R)-1-(2-chloropyridin-3-yl)ethyl (4-(5-(1-(difluoromethyl)-3,3-difluorocyclobutane-1-carboxamido)pyridin-2-yl)-1-methyl-1H-1,2,3-triazol-5-yl)carbamate], with 49.9 nM.
For `C[C@@H](OC(=O)Nc1c(-c2ccc(NC(=O)C3(C)CS(=O)(=O)C3)cn2)nnn1C)c1cc(F)cnc1F` [Compound 228, (R)-1-(2,5-difluoropyridin-3-yl)ethyl (1-methyl-4-(5-(3-methyl-1,1-dioxidothietane-3-carboxamido)pyridin-2-yl)-1H-1,2,3-triazol-5-yl)carbamate] the value was 403 nM; for `CO[C@]1(C#N)C[C@H](C(=O)Nc2cnc(-c3nnn(C)c3NC(=O)O[C@H](C)c3cc(F)cnc3F)nc2)C1` [Compound 335, (R)-1-(2,5-difluoropyridin-3-yl)ethyl (4-(5-((1s,3S)-3-cyano-3-methoxycyclobutane-1-carboxamido)pyrimidin-2-yl)-1-methyl-1H-1,2,3-triazol-5-yl)carbamate], 778 nM; for `CC(C)COC(=O)Nc1ccc(-c2nnn(C)c2NC(=O)O[C@H](C)c2cccnc2Cl)nc1` [Compound 22, (R)-1-(2-chloropyridin-3-yl)ethyl (4-(5-((isobutoxycarbonyl)amino)pyridin-2-yl)-1-methyl-1H-1,2,3-triazol-5-yl)carbamate], 43.4 nM.
Consider `C[C@@H](OC(=O)Nc1c(-c2ccc(NC(=O)[C@@H]3C[C@H]3c3ccc(F)nc3)cn2)nnn1C)c1cc(F)cnc1F` (mixture of isomers) [Compound 237, (R)-1-(2,5-difluoropyridin-3-yl)ethyl (4-(5-((1RS,2RS)-2-(6-fluoropyridin-3-yl)cyclopropane-1-carboxamido)pyridin-2-yl)-1-methyl-1H-1,2,3-triazol-5-yl)carbamate], for which the half-maximal effective concentration (EC50) was found to be 19.3 nM.
As to `C[C@@H](OC(=O)Nc1c(-c2ccc(NC(=O)C3C(F)(F)C34CC4)cn2)nnn1C)c1cccnc1Cl` (stereo partly drawn) [Compound 199, (R)-1-(2-chloropyridin-3-yl)ethyl (4-(5-(2,2-difluorospiro[2.2]pentane-1-carboxamido)pyridin-2-yl)-1-methyl-1H-1,2,3-triazol-5-yl)carbamate], the EC50 was found to be 65.7 nM.
As to `CC(=O)Nc1ccc(-c2nnn(C)c2NC(=O)O[C@H](C)c2cccnc2Cl)nc1F` [Compound 5, [(1R)-1-(2-chloro-3-pyridyl)ethyl] N-[5-(5-acetamido-6-fluoro-2-pyridyl)-3-methyl-triazol-4-yl]carbamate], the EC50 worked out at 1510 nM.
For `C[C@@H](OC(=O)Nc1c(-c2ccc(NC(=O)[C@H]3[C@@H]4CN(CC(F)(F)F)C[C@@H]43)cn2)nnn1C)c1cccnc1Cl` [Compound 308, (R)-1-(2-chloropyridin-3-yl)ethyl (1-methyl-4-(5-((1R,5S,6r)-3-(2,2,2-trifluoroethyl)-3-azabicyclo[3.1.0]hexane-6-carboxamido)pyridin-2-yl)-1H-1,2,3-triazol-5-yl)carbamate], the EC50 stood at 337 nM.
As for `C[C@@H](OC(=O)Nc1c(-c2ccc(NC(=O)[C@H]3C[C@@H](O)C3)cn2)nnn1C)c1cccnc1Cl` [Compound 155, (R)-1-(2-chloropyridin-3-yl)ethyl (4-(5-((1s,3S)-3-hydroxycyclobutane-1-carboxamido)pyridin-2-yl)-1-methyl-1H-1,2,3-triazol-5-yl)carbamate], the EC50 is 748 nM.
Then `C[C@@H](OC(=O)Nc1c(-c2ccc(NC(=O)[C@]3(C)C[C@H](C#N)C3)cn2)nnn1C)c1cccnc1Cl` [Compound 121, (R)-1-(2-chloropyridin-3-yl)ethyl (4-(5-((1s,3S)-3-cyano-1-methylcyclobutane-1-carboxamido)pyridin-2-yl)-1-methyl-1H-1,2,3-triazol-5-yl)carbamate], with 264 nM; and `C[C@@H](OC(=O)Nc1c(-c2cc(F)c(NC(=O)c3ccc(C(F)(F)F)nc3)cn2)nnn1C)c1cccnc1Cl` [Compound 317, (R)-1-(2-chloropyridin-3-yl)ethyl (4-(4-fluoro-5-(6-(trifluoromethyl)nicotinamido)pyridin-2-yl)-1-methyl-1H-1,2,3-triazol-5-yl)carbamate], with 90.5 nM; and `C[C@@H](OC(=O)Nc1c(-c2ccc(NC(=O)c3ccc(C#N)nc3)cn2)nnn1C)c1cccnc1Cl` [Compound 99, (R)-1-(2-chloropyridin-3-yl)ethyl (4-(5-(6-cyanonicotinamido)pyridin-2-yl)-1-methyl-1H-1,2,3-triazol-5-yl)carbamate], with 53.9 nM.
On to `C[C@@H](C#N)C(=O)Nc1ccc(-c2nnn(C)c2NC(=O)O[C@H](C)c2cccnc2Cl)nc1` [Compound 204, (R)-1-(2-chloropyridin-3-yl)ethyl (4-(5-((S)-2-cyanopropanamido)pyridin-2-yl)-1-methyl-1H-1,2,3-triazol-5-yl)carbamate], for which the EC50 worked out at 132 nM.
Regarding `C[C@@H](OC(=O)Nc1c(-c2ccc(NC(=O)[C@H]3C[C@@H]3c3ccccn3)cn2)nnn1C)c1cc(F)cnc1F` [Compound 266, (R)-1-(2,5-difluoropyridin-3-yl)ethyl (1-methyl-4-(5-((1S,2S)-2-(pyridin-2-yl)cyclopropane-1-carboxamido)pyridin-2-yl)-1H-1,2,3-triazol-5-yl)carbamate], the concentration for a half-maximal effect (EC50) turned out to be 749 nM.
As to `C[C@@H](OC(=O)Nc1c(-c2ccc(NC(=O)C34CC(C#N)(C3)C4)cn2)nnn1C)c1cc(F)cnc1F` [Compound 162, (R)-1-(2,5-difluoropyridin-3-yl)ethyl (4-(5-(3-cyanobicyclo[1.1.1]pentane-1-carboxamido)pyridin-2-yl)-1-methyl-1H-1,2,3-triazol-5-yl)carbamate], the EC50 stood at 84.7 nM.
As for `C[C@@H](OC(=O)Nc1c(-c2cnc(NC(=O)c3cnc(C(F)F)nc3)cn2)nnn1C)c1cccnc1Cl` [Compound 324, (R)-1-(2-chloropyridin-3-yl)ethyl (4-(5-(2-(difluoromethyl)pyrimidine-5-carboxamido)pyrazin-2-yl)-1-methyl-1H-1,2,3-triazol-5-yl)carbamate], the EC50 was determined as 53.7 nM.
In the case of `C[C@@H](OC(=O)Nc1c(-c2ccc(NC(=O)[C@H]3C[C@@H]3C3CC3)cn2)nnn1C)c1cc(F)cnc1F` [Compound 268, (R)-1-(2,5-difluoropyridin-3-yl)ethyl (4-(5-((1R,2S)-[1,1′-bi(cyclopropane)]-2-carboxamido)pyridin-2-yl)-1-methyl-1H-1,2,3-triazol-5-yl)carbamate], the EC50 was 7.3 nM.
